Source: publication PMC6222476 (Molecules : A Journal of Synthetic Chemistry and Natural …, 2018)
Where two headings read alike, the source gives them in different places.

Key:
[1] = system: IMR-32 neuroblastoma cell line; assay: cells; format: cell-based, human; settings: SRB assay, 48 h
Procedure: (§1) All the newly synthesized compounds were screened for their in vitro anticancer activity against six cancer cell lines: SK-MEL-2, MCF-7, IMR-32, MG-63, HT-29 and Hep-G2 by SRB assay, using adriamycin as a standard drug. All the synthesized derivatives 4(a–n) were also tested for their cytotoxic effect on normal cell lines i.e., NIH/3T3 (murine embryonic fibroblast by the SRB assay method. The cell lines were grown in RPMI 1640 medium containing 10% fetal bovine serum and 2 mM L-glutamine. For the present screening experiments, cells were inoculated into 96 well microtiter plates in 90 µL at 5000 cells per well. After cell inoculation, the microtiter plates were incubated at 37 °C, 5% CO2, 95% air and 100% relative humidity for 24 h prior to addition of experimental drugs. Experimental drugs were solubilized in appropriate solvent to prepare stock of 10^−2 concentration. At the time of experiment four 10-fold serial dilutions were made using complete medium. Aliquots of 10 µL of these different drug dilutions were added to the appropriate micro-titer wells already containing 90 µL of medium, resulting in the required final drug concentrations. After compound addition, plates were incubated at standard conditions for 48 h. and assay was terminated by the addition of cold trichloroacetic acid (TCA). Cells were fixed in situ by the gentle addition of […] (final concentration, 10% TCA) and incubated for 60 min at 4 °C. The supernatant was discarded; the plates were washed five times with tap water and air dried.
(§2) Sulforhodamine B (SRB) solution (50 µL) at 0.4% (w/v) in 1% acetic acid was added to each of the wells, and plates were incubated for 20 min at room temperature. After staining, unbound dye was recovered and the residual dye was removed by washing five times with 1% acetic acid. The plates were air dried. Bound stain was subsequently eluted with 10 mM trizma base, and the absorbance was read on an ELISA plate reader at a wavelength of 540 nm with 690 nm reference wavelength. All the tests were repeated in at least three independent experiments at the concentrations of 10, 20, 40 and 80 µg/mL [57].

[2] = system: MCF-7 human breast cancer cell line; assay: cells; format: cell-based; settings: 48 h
Procedure: as §1, §2

[3] = system: HT-29 human colon cancer cell line; assay: cells; format: cell-based; settings: for anticancer activity compared with standard drug adriamycin, HT-29: HT-29 (human colon cancer) cell line; for GI50: SRB assay, 48 h, HT-29
Procedure: as §1, §2

[4] = system: MG-63 human osteosarcoma cell line; assay: cells; format: cell-based; settings: SRB assay, 48 h
Procedure: as §1, §2

[5] = system: SK-MEL-2 human melanoma cancer cell line; assay: cells; format: cell-based; settings: SRB assay, 48 h, read-out: GI50 SKMEL-2
Procedure: as §1, §2

[6] = system: Hep-G2 human hepatoma cell line; assay: cells; format: cell-based; settings: SRB assay, 48 h, Hep-G2
Procedure: as §1, §2

in vitro = format: cell-based; settings: mouse; SRB assay, normal murine embryonic fibroblast cell line; read-out: GI50 NIH/3T3
Procedure: as §1, §2

[7] = system: IMR-32 neuroblastoma cell line; format: cell-based, human; settings: at the GI50 concentration, in contrast to control cells
[8] = system: NIH/3T3 normal murine embryonic fibroblast cell line; assay: in vitro; format: cell-based; settings: SRB assay
Procedure: as §1, §2

[9] = system: SK-MEL-2 human melanoma cancer cell line; format: cell-based; settings: at the GI50 concentration, in comparison to control cells

SMILES	GI50 ([1]; Homo sapiens)	GI50 ([2]; Homo sapiens, MCF7, SRB assay)	anticancer activity compared with standard drug adriamycin, HT-29 [3]	GI50 ([3]; Homo sapiens)	GI50 ([4]; Homo sapiens)	GI50 ([5]; Homo sapiens)	GI50 ([6]; Homo sapiens, HepG2)	GI50 (in vitro)	morphological changes in IMR-32 cancer cells [7]	melting point	GI50 [1]	GI50 ([2]; SRB assay)	GI50 [3]	GI50 [4]	GI50 [5]	GI50 [6]	GI50 [8]	morphological changes in SK-MEL-2 cancer cell lines [9]
CCOP(=O)(OCC)C(NN=C1C(=O)Nc2ccccc21)c1ccc(O)cc1 (stereo not drawn) [4f, Diethyl(4-hydroxyphenyl)(2-(2-oxoindolin-3-ylidene)hydrazinyl)methylphosphonate]	< 0.1 µM	> 100 µM	equipotent	< 0.1 µM	< 0.1 µM	51.6 µM	12.2 µM	> 250 µM	cell detachment, cell wall deformation, cell shrinkage and reduced number of viable cells	140 to 142 °C								
CCOP(=O)(OCC)C(NN=C1C(=O)Nc2ccccc21)c1ccc(O)c(OC)c1 (stereo not drawn) [4g, Diethyl(4-hydroxy-3-methoxyphenyl)(2-(2-oxoindolin-3-ylidene)hydrazinyl)methylphosphonates]											> 100 µM	> 100 µM	12.2 µM	< 0.1 µM	24 µM	32 µM	> 250 µM	cell detachment, cell wall deformation, cell shrinkage and reduced number of viable cells
CCOP(=O)(OCC)C(N/N=C1\C(=O)Nc2ccccc21)c1ccc([N+](=O)[O-])cc1 (stereo not drawn) [4m, (Z)-Diethyl (4-nitrophenyl)(2-(2-oxoindolin-3-ylidene)hydrazinyl)methylphosphonate]	56.6 µM	77.2 µM	equipotent	< 0.1 µM	< 0.1 µM	44.2 µM	13.3 µM	> 250 µM		172 to 174 °C								
CCOP(=O)(OCC)C(N/N=C1\C(=O)Nc2ccccc21)c1scnc1C (stereo not drawn) [4n, (Z)-Diethyl (4-methylthiazole-5-yl)(2-(2-oxoindolin-3-ylidene)hydrazinyl)methylphosphonate]	67.8 µM	58.2 µM	equipotent	< 0.1 µM	< 0.1 µM	33.1 µM	24.9 µM	> 250 µM		188 to 190 °C								
